PubChem BioAssay AID330 (DTP/NCI, 2004)
“And” between values parts separate entries of the source, which are not always exact repeats. Equal values may be shown once. Inconclusive results and toxic doses are left out. How the source made its calls: active means survival T/C of 150% or more; inactive means T/C below 125% in these data. Peptide text beside a SMILES is read from it.

Test system: P388 leukemia ip, CD2F1 mice, survival T/C
Experiment: NCI In Vivo Anticancer Drug Screen. Data for tumor model P388 Leukemia (intraperitoneal) in CD2F1 (CDF1) mice
Conditions: endpoint: median survival time, higher = longer survival
Method in brief: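 Mice carrying the transplanted tumor received test compound or vehicle. Survival was recorded in each group, and the value is the treated-group measurement divided by that of the vehicle-treated control group.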

[1] = dose: 60.0 mg/kg/injection, schedule: Q01DX005 (ip), vehicle: saline with Tween-80
[2] = dose: 120.0 mg/kg/injection, schedule: Q01DX005 (ip), vehicle: saline with Tween-80
[3] = dose: 240.0 mg/kg/injection, schedule: Q01DX005 (ip), vehicle: saline with Tween-80
[4] = dose: 50.0 mg/kg/injection, schedule: Q01DX009 (ip), vehicle: saline
[5] = dose: 50.0 mg/kg/injection, schedule: Q01DX009 (ip), vehicle: saline with Tween-80
[6] = dose: 100.0 mg/kg/injection, schedule: Q01DX009 (ip), vehicle: saline with Tween-80
[7] = dose: 200.0 mg/kg/injection, schedule: Q01DX009 (ip), vehicle: saline with Tween-80
[8] = dose: 400.0 mg/kg/injection, schedule: Q01DX009 (ip), vehicle: saline with Tween-80
[9] = dose: 100.0 mg/kg/injection, schedule: Q04DX002 (ip), vehicle: Klucel (hydroxypropylcellulose) (HPC)
[10] = dose: 200.0 mg/kg/injection, schedule: Q04DX002 (ip), vehicle: Klucel (hydroxypropylcellulose) (HPC)
[11] = dose: 400.0 mg/kg/injection, schedule: Q04DX002 (ip), vehicle: Klucel (hydroxypropylcellulose) (HPC)
[12] = dose: 100.0 mg/kg/injection, schedule: Q01DX001 (ip), vehicle: Klucel (hydroxypropylcellulose) (HPC)
[13] = dose: 200.0 mg/kg/injection, schedule: Q01DX001 (ip), vehicle: Klucel (hydroxypropylcellulose) (HPC)
[14] = dose: 50.0 mg/kg/injection, schedule: Q01DX005 (ip), vehicle: Klucel (hydroxypropylcellulose) (HPC)
[15] = dose: 100.0 mg/kg/injection, schedule: Q01DX005 (ip), vehicle: Klucel (hydroxypropylcellulose) (HPC)
[16] = dose: 200.0 mg/kg/injection, schedule: Q01DX005 (ip), vehicle: Klucel (hydroxypropylcellulose) (HPC)
[17] = dose: 2.5 mg/kg/injection, schedule: Q01DX009 (ip), vehicle: saline with Tween-80
[18] = dose: 5.0 mg/kg/injection, schedule: Q01DX009 (ip), vehicle: saline with Tween-80
[19] = dose: 10.0 mg/kg/injection, schedule: Q01DX009 (ip), vehicle: saline with Tween-80
[20] = dose: 50.0 mg/kg/injection, schedule: Q01DX005 (ip), vehicle: saline with Tween-80
[21] = dose: 100.0 mg/kg/injection, schedule: Q01DX005 (ip), vehicle: saline with Tween-80

Measured: T/C

CC(C)(Oc1ccc(Cl)cc1)C(=O)NC1CC(C)(C)N(O)C(C)(C)C1
inactive: [1] 104 % of control | [2] 96 % of control | [3] 91 % of control

CCn1ncc(N=O)c1N
inactive: dose: 60.0 mg/kg/injection, schedule: Q01DX005 (ip), vehicle: saline 104 % of control and 100 % of control | dose: 120.0 mg/kg/injection, schedule: Q01DX005 (ip), vehicle: saline 92 % of control and 104 % of control | dose: 240.0 mg/kg/injection, schedule: Q01DX005 (ip), vehicle: saline 90 % of control and 108 % of control

[Cl][Sn]1([c]2ccccc2)[O]CCNCC[O]1
inactive: dose: 25.0 mg/kg/injection, schedule: Q01DX009 (ip), vehicle: suspension in saline 97 % of control | [4] 120 % of control | dose: 50.0 mg/kg/injection, schedule: Q01DX009 (ip), vehicle: suspension in saline 109 % of control | dose: 100.0 mg/kg/injection, schedule: Q01DX009 (ip), vehicle: suspension in saline 109 % of control

COc1cc(C2c3cc4c(cc3OC3(N5CCCC5)CCCCC23)OCO4)cc(OC)c1OC (stereo not drawn)
inactive: dose: 60.0 mg/kg/injection, schedule: Q01DX005 (ip), vehicle: Klucel (hydroxypropylcellulose) (HPC) 99 % of control | dose: 120.0 mg/kg/injection, schedule: Q01DX005 (ip), vehicle: Klucel (hydroxypropylcellulose) (HPC) 93 % of control | dose: 240.0 mg/kg/injection, schedule: Q01DX005 (ip), vehicle: Klucel (hydroxypropylcellulose) (HPC) 96 % of control

O=[N+]([O-])c1cccc2c1CCCC2
inactive: dose: 12.5 mg/kg/injection, schedule: Q01DX009 (ip), vehicle: saline with Tween-80 100 % of control | dose: 25.0 mg/kg/injection, schedule: Q01DX009 (ip), vehicle: saline with Tween-80 109 % of control | [5] 90 % of control

Cc1cc(Br)ccc1N
inactive: [6] 110 % of control | [7] 110 % of control | [8] 105 % of control

O=C1SC/C(=N\N=c2/scc(-c3ccc(Br)cc3)n2-c2ccccc2)N1Cc1ccccc1
inactive: [9] 92 % of control | [10] 91 % of control | [11] 89 % of control

O=C1NC(=O)C23CCCCc4cccc(c42)C(=O)C13 (stereo not drawn)
inactive: dose: 25.0 mg/kg/injection, schedule: Q01DX005 (ip), vehicle: water 100 % of control | dose: 50.0 mg/kg/injection, schedule: Q01DX005 (ip), vehicle: water 99 % of control | dose: 100.0 mg/kg/injection, schedule: Q01DX005 (ip), vehicle: water 103 % of control | dose: 200.0 mg/kg/injection, schedule: Q01DX005 (ip), vehicle: water 100 % of control

Cc1[nH]c2ccc(N(C)C)cc2c(=O)c1CN(C)C
inactive: dose: 50.0 mg/kg/injection, schedule: Q01DX009 (ip), vehicle: Klucel (hydroxypropylcellulose) (HPC) 105 % of control | dose: 100.0 mg/kg/injection, schedule: Q01DX009 (ip), vehicle: Klucel (hydroxypropylcellulose) (HPC) 108 % of control

CC(=O)NC(CNC(C)C)C(=O)O (stereo not drawn)
inactive: dose: 50.0 mg/kg/injection, schedule: Q01DX001 (ip), vehicle: Klucel (hydroxypropylcellulose) (HPC) 102 % of control | [12] 106 % of control | [13] 98 % of control

[I][Pt+2][I].[NH-]CC[NH-]
inactive: dose: 2.75 mg/kg/injection, schedule: Q01DX009 (ip), vehicle: Klucel (hydroxypropylcellulose) (HPC) 87 % of control | dose: 5.5 mg/kg/injection, schedule: Q01DX009 (ip), vehicle: Klucel (hydroxypropylcellulose) (HPC) 117 % of control | dose: 11.0 mg/kg/injection, schedule: Q01DX009 (ip), vehicle: Klucel (hydroxypropylcellulose) (HPC) 109 % of control | dose: 22.0 mg/kg/injection, schedule: Q01DX009 (ip), vehicle: Klucel (hydroxypropylcellulose) (HPC) 111 % of control

CS1(C)=Nc2c([N+](=O)[O-])cc([N+](=O)[O-])cc2S(=O)(=O)N=1
inactive: [1] 98 % of control | [2] 94 % of control | [3] 94 % of control

COc1cc(CCN=Cc2ccccc2O)c([N+](=O)[O-])cc1OC
inactive: [14] 97 % of control | [15] 100 % of control | [16] 92 % of control

COC1=CC(=O)c2c(O)cc(OC)c(O)c2C1=O
inactive: dose: 1.25 mg/kg/injection, schedule: Q01DX009 (ip), vehicle: saline + alcohol 104 % of control | dose: 1.25 mg/kg/injection, schedule: Q01DX009 (ip), vehicle: saline with Tween-80 117 % of control | dose: 2.5 mg/kg/injection, schedule: Q01DX009 (ip), vehicle: saline + alcohol 104 % of control | [17] 115 % of control | dose: 5.0 mg/kg/injection, schedule: Q01DX009 (ip), vehicle: saline + alcohol 104 % of control | [18] 110 % of control | dose: 10.0 mg/kg/injection, schedule: Q01DX009 (ip), vehicle: saline + alcohol 106 % of control | [19] 110 % of control | dose: 20.0 mg/kg/injection, schedule: Q01DX009 (ip), vehicle: saline + alcohol 106 % of control | dose: 20.0 mg/kg/injection, schedule: Q01DX009 (ip), vehicle: saline with Tween-80 106 % of control

COC(=O)/C(CC(=O)O)=C(\c1ccc2c(c1)OCO2)c1cc(OC)c(OC)c(OC)c1
inactive: [9] 100 % of control | [10] 103 % of control | [11] 100 % of control

CC(=O)Nc1cccc2c1CCCC2
inactive: [20] 100 % of control | [21] 102 % of control | dose: 200.0 mg/kg/injection, schedule: Q01DX005 (ip), vehicle: saline with Tween-80 102 % of control

O=S1(=O)CCN(Cc2ccccn2)CC1
inactive: [4] 94 % of control | dose: 100.0 mg/kg/injection, schedule: Q01DX009 (ip), vehicle: saline 94 % of control | dose: 200.0 mg/kg/injection, schedule: Q01DX009 (ip), vehicle: saline 91 % of control

O=C/C=C/C=C/C=C/c1ccccc1
inactive: dose: 60.0 mg/kg/injection, schedule: Q01DX005 (ip), vehicle: distilled water + alcohol 100 % of control | dose: 120.0 mg/kg/injection, schedule: Q01DX005 (ip), vehicle: distilled water + alcohol 100 % of control | dose: 240.0 mg/kg/injection, schedule: Q01DX005 (ip), vehicle: distilled water + alcohol 96 % of control

COC(=O)C1=Cc2c(n3ncnc3n(-c3ccccc3)c2=O)N(S(=O)(=O)c2ccc(C)cc2)CC1
inactive: [1] 93 % of control | [2] 95 % of control | [3] 97 % of control

COC(=O)C(Cc1ccc(O)cc1)NC(=O)C(Cc1ccccc1)NC(C)=O (stereo not drawn) (Ac-Phe-Tyr-OMe; configuration not given here)
inactive: [14] 92 % of control | [15] 97 % of control | [16] 88 % of control

N#C/C(=C\c1ccccc1)c1ccc(Cl)cc1
inactive: [5] 105 % of control and 97 % of control | [6] 106 % of control and 91 % of control | [7] 113 % of control and 96 % of control | [8] 103 % of control and 97 % of control

COC1C=CCCC1 (stereo not drawn)
inactive: [12] 108 % of control | [13] 117 % of control | dose: 400.0 mg/kg/injection, schedule: Q01DX001 (ip), vehicle: Klucel (hydroxypropylcellulose) (HPC) 106 % of control

O=C1c2ccccc2C(=O)c2c(I)cccc21
inactive: [20] 97 % of control | [21] 97 % of control

COc1c2c3c4c5c(c(=O)cc6c5c5c(cc(=O)c(c1O)c35)OCO6)=C(O)[C@@]1(OC)O[C@H](C)C[C@@]41C2
inactive: [17] 95 % of control | [18] 95 % of control | [19] 95 % of control

CC12C=CC(C(C(=O)O)C1=O)C2(C)C (stereo not drawn)
inactive: dose: 100.0 mg/kg/injection, schedule: Q04DX002 (ip), vehicle: saline with Tween-80 107 % of control | dose: 200.0 mg/kg/injection, schedule: Q04DX002 (ip), vehicle: saline with Tween-80 103 % of control

CC(=Nc1ccc(N(C)C)cc1)c1ccccc1
inactive: [1] 98 % of control | [2] 98 % of control

Nc1c(C(=O)O)c(Br)cc2c1C(=O)c1ccccc1C2=O
inactive: [14] 99 % of control | [15] 99 % of control | [16] 107 % of control
